Test results reported in ChEMBL document CHEMBL1159079, “Pharmacophore modeling and virtual screening for designing potential 5-lipoxygenase inhibitors” (Bioorg Med Chem Lett, 2010).

Assay: Inhibition of potato tuber 5LOX by polarographic method
Set-up: species or system Solanum tuberosum

Question: With `O=C(CCCC1=CCc2ccccc21)N1CCOCC1` as the compound, how does the IC50 read?
Answer: 2060 nM

Question: Which IC50 does the source give for `CS(=O)(=O)c1ccc(C#CC(=O)c2ccccc2)cc1` here?
Answer: 1000 nM

Question: With `O=C1NCCN(c2ccccn2)N1` as the compound, how does the IC50 read?
Answer: 26000 nM

Question: For `COc1cccc(N2CC(C)NC(=O)N2)n1` (centres undefined), which IC50 is on record?
Answer: 5500 nM

Question: Which IC50 does the source give for `CS(=O)(=O)Nc1ccc([N+](=O)[O-])cc1OC1CCCCC1` [NS-398] here?
Answer: 10000 nM

Question: Which IC50 does the source give for `CCOC(=O)c1c(Cc2cccc(Cl)c2)[nH]c2ccc(O)cc12` here?
Answer: 2000 nM

Question: With `CC1Cc2c(OCc3ccc(-c4ccccc4)cn3)ccc3c2c(c(CCOc2ccccc2CC(=O)O)n3Cc2cccc(F)c2)S1` (centres undefined) as the compound, how does the IC50 read?
Answer: 23 nM

Question: Which IC50 does the source give for `C#CCCCC(=O)c1cc(C(C)(C)C)c(O)c(C(C)(C)C)c1` [TEBUFELONE] here?
Answer: 3000 nM

Question: Which IC50 does the source give for `COc1cc(O)cc(/C=C/C=C/C(=O)NCCN2CCC(OC(c3ccccc3)c3ccccc3)CC2)c1` here?
Answer: 150 nM

Question: For `COc1ccc(-c2cnsc2-c2ccc(OC)cc2)cc1`, which IC50 is on record?
Answer: 20000 nM

Question: With `COc1ccc(-c2ssc(=S)c2-c2ccc(OC)cc2)cc1` as the compound, how does the IC50 read?
Answer: 10000 nM

Question: With `Cc1nccn1-c1ccc(Sc2cccc(C3(C(N)=O)CCOCC3)c2)cc1` as the compound, how does the IC50 read?
Answer: 140 nM

Question: Which IC50 does the source give for `N#Cc1cc(-c2ccoc2)c2ccc(OCc3cccc(C4(O)CCOCC4)n3)cc2c1` here?
Answer: 15 nM

Question: With `Cc1cccc(N2CCNC(=O)N2)c1` as the compound, how does the IC50 read?
Answer: 15000 nM

Question: For `CCN1CC/C(=C/c2cc(C(C)(C)C)c(O)c(C(C)(C)C)c2)S1(=O)=O`, which IC50 is on record?
Answer: 2500 nM

Question: With `CC1=C(CCCC(=O)N2CCOCC2)c2cc(Cl)ccc2C1Cc1ccccc1` (centres undefined) as the compound, how does the IC50 read?
Answer: 950 nM

Question: Which IC50 does the source give for `CS(=O)(=O)c1ccc(-n2nc(C(F)(F)F)cc2-c2ccn(O)c(=O)c2)cc1` here?
Answer: 350 nM

Question: For `Cc1cc(C)cc(N2CCNC(=O)N2)c1`, which IC50 is on record?
Answer: 12000 nM

Question: For `CS(=O)(=O)c1ccc(C#Cc2ccc(=O)n(C(F)F)c2)cc1`, which IC50 is on record?
Answer: 3300 nM

Question: Which IC50 does the source give for `NS(=O)(=O)c1cccc(C#Cc2ccc(=O)n(O)c2)c1` here?
Answer: 15000 nM

Question: Which IC50 does the source give for `O=C1NCCN(c2cccc(F)c2)N1` here?
Answer: 19000 nM

Question: For `Cc1ccc(-c2c(-c3ccc(S(C)(=O)=O)cc3)cn3c2CCC3)cc1`, which IC50 is on record?
Answer: 10000 nM

Question: Which IC50 does the source give for `FC(F)(F)c1cccc(Nc2ccccc2-c2n[nH]c(=S)o2)c1` here?
Answer: 770 nM

Question: Which IC50 does the source give for `COc1cc(/C=C\C=C\c2nc3ccc(CO)cc3o2)ccc1O` here?
Answer: 300 nM

Question: With `COc1cc(/C=C\C=C\c2nc3ncccc3o2)ccc1O` as the compound, how does the IC50 read?
Answer: 370 nM

Question: With `CC(=O)Nc1ccc(/C(=C/c2ccc(S(C)(=O)=O)cc2)C(=O)O)cc1` as the compound, how does the IC50 read?
Answer: 110 nM

Question: Which IC50 does the source give for `CC(C)(C)OC(=O)N1CCN(C(=O)CCCC2=CCc3ccccc32)CC1` here?
Answer: 740 nM

Question: Which IC50 does the source give for `NS(=O)(=O)c1ccc(-n2nc(C(F)(F)F)cc2-c2ccn(O)c(=O)c2)cc1` here?
Answer: 4900 nM

Question: Which IC50 does the source give for `CCOC(=O)c1ccc2oc(/C=C/C=C\c3ccc(O)c(O)c3)nc2c1` here?
Answer: 20 nM

Question: With `COC1(c2cc(F)cc(OCC3=NN(c4ccccc4)C(c4ccccc4)C3)c2)CCOCC1` (centres undefined) as the compound, how does the IC50 read?
Answer: 570 nM

Question: For `O=C1NCCN(c2cccc([N+](=O)[O-])c2)N1`, which IC50 is on record?
Answer: 49000 nM

Question: Which IC50 does the source give for `CSc1cccc(N2CCNC(=O)N2)c1` here?
Answer: 14000 nM

Question: For `CC1(C)Cc2c(-c3ccccc3)c(-c3ccc(Cl)cc3)c(CC(=O)O)n2C1` [LICOFELONE], which IC50 is on record?
Answer: 180 nM

Question: With `COC(=O)c1c(Nc2cccc(Cl)c2)[nH]c2ccc(O)cc12` as the compound, how does the IC50 read?
Answer: 300 nM

Question: With `CC1Cc2c(CCc3ccc(-c4ccccc4)cn3)ccc3c2C(S1)C(CC(C)(C)Cc1nnn[nH]1)N3Cc1ccc(Cl)cc1` (centres undefined) as the compound, how does the IC50 read?
Answer: 16 nM

Question: With `O=C(O)/C=C/c1ccc(O)c(O)c1` [CAFFEIC ACID] as the compound, how does the IC50 read?
Answer: 4000 nM

Question: Which IC50 does the source give for `NS(=O)(=O)c1ccc(N2N=C(C(F)(F)F)CC2c2c[nH]c3ccccc23)cc1` (centres undefined) here?
Answer: 41000 nM

Question: With `COC1(c2cccc(COc3ccc4c(-c5ccccc5)c5c(cc4c3)C(=O)OC5)c2)CCOCC1` as the compound, how does the IC50 read?
Answer: 14 nM

Question: Which IC50 does the source give for `CC1Cc2c(OCc3ccc(-c4ccccc4)cn3)ccc3c2C(S1)C(CC(C)(C)CC(=O)NS(C)(=O)=O)N3Cc1ccc(Cl)cc1` (centres undefined) here?
Answer: 36 nM

Question: Which IC50 does the source give for `COc1ccc(C(=O)/C=C/c2ccc(O)c(O)c2)c(OC)c1` here?
Answer: 40 nM

Question: With `CC1CN(c2cccc(Cl)c2)NC(=O)N1` (centres undefined) as the compound, how does the IC50 read?
Answer: 2700 nM

Question: For `CCCCC1CN(c2ccccc2)NC(=O)N1` (centres undefined), which IC50 is on record?
Answer: 1500 nM

Question: Which IC50 does the source give for `CC(C)(C)c1cc(C(=O)CCCC2CC2)cc2c1OCC2(C)C` here?
Answer: 68000 nM

Question: Which IC50 does the source give for `COC1(c2cc(F)cc(OCc3cc(-c4ccccc4)n(-c4ccc(S(C)(=O)=O)cc4)n3)c2)CCOCC1` here?
Answer: 3 nM

Question: For `NS(=O)(=O)c1ccc(C#Cc2ccc(=O)n(O)c2)cc1`, which IC50 is on record?
Answer: 68000 nM

Question: For `CCN(C)C(=O)c1cc(C(C)(C)C)c2c(c1)C(C)(C)CO2`, which IC50 is on record?
Answer: 22000 nM

Question: For `COc1ccc2c(c1)c(CCN(O)C(N)=O)c(C)n2C(=O)c1ccc(Cl)cc1`, which IC50 is on record?
Answer: 400 nM

Question: For `Cc1ccc(-c2cc(C(F)(F)F)nn2-c2ccc(S(N)(=O)=O)cc2)cc1` [CELECOXIB], which IC50 is on record?
Answer: 10000 nM

Question: Which IC50 does the source give for `Cc1ccc(-c2c(-c3ccc(S(C)(=O)=O)cc3)ssc2=S)cc1` here?
Answer: 9000 nM

Question: For `Nc1cccc(N2CCNC(=O)N2)c1`, which IC50 is on record?
Answer: 178000 nM

Question: With `O=C1NCCN(c2ccoc2-c2ccccc2)N1` as the compound, how does the IC50 read?
Answer: 4900 nM

Question: For `CC1(C)Cc2c(-c3ccccc3)c(-c3ccc([N+](=O)[O-])cc3)c(CC(=O)O)n2C1`, which IC50 is on record?
Answer: 1500 nM

Question: Which IC50 does the source give for `CCOC(=O)c1c(Cc2cccc(Cl)c2)[nH]c2cc(-c3ccccc3)c(O)cc12` here?
Answer: 1200 nM

Question: With `FC(F)(F)c1cccc(Nc2ccccc2-c2n[nH]c(=S)s2)c1` as the compound, how does the IC50 read?
Answer: 770 nM

Question: With `COc1cc(/C=C\C=C\c2nc3ccccc3o2)ccc1O` as the compound, how does the IC50 read?
Answer: 330 nM

Question: For `CS(=O)(=O)Nc1ccc(Oc2ccc(F)cc2)s1`, which IC50 is on record?
Answer: 130 nM

Question: With `O=C(CC1=CC(Cc2ccc(Cl)c(Cl)c2)c2ccccc21)N1CCOCC1` (centres undefined) as the compound, how does the IC50 read?
Answer: 870 nM

Question: For `CCCC(=O)c1cc(C(C)(C)C)c2c(c1)C(C)(C)CO2`, which IC50 is on record?
Answer: 8500 nM

Question: Which IC50 does the source give for `COCCOCC1CN(c2ccccc2)NC(=O)N1` (centres undefined) here?
Answer: 14000 nM

Question: With `CS(=O)(=O)c1ccccc1C#Cc1ccc(=O)n(C(F)F)c1` as the compound, how does the IC50 read?
Answer: 3400 nM

Question: With `NS(=O)(=O)c1ccccc1C#Cc1ccc(=O)n(O)c1` as the compound, how does the IC50 read?
Answer: 10000 nM

Question: With `COC1(c2cc(F)cc(OCCc3c[nH]c4ccccc34)c2)CCOCC1` as the compound, how does the IC50 read?
Answer: 850 nM

Question: Which IC50 does the source give for `COC1(c2cccc(OCc3ccc4ccccc4c3)c2)CCOCC1` here?
Answer: 10 nM

Question: Which IC50 does the source give for `CC(C)(C)c1cc(Cc2cccs2)cc2c1OCC2(C)C` here?
Answer: 68000 nM

Question: For `CS(=O)(=O)c1cccc(C#Cc2ccc(=O)n(C(F)F)c2)c1`, which IC50 is on record?
Answer: 3200 nM

Question: With `O=C1NCCN(c2ccccc2)N1` as the compound, how does the IC50 read?
Answer: 21000 nM

Question: With `CC(C)(C)c1cc(C(=O)CCCC2CC2)cc2c1OCCC2(C)C` as the compound, how does the IC50 read?
Answer: 8000 nM

Question: With `CS(=O)(=O)c1ccc(C#CC(=O)c2cccc(O)c2)cc1` as the compound, how does the IC50 read?
Answer: 300 nM

Question: Which IC50 does the source give for `COc1ccc(-c2sncc2-c2ccc(C)cc2)cc1` here?
Answer: 8000 nM

Question: With `O=C1NCCN(c2ncccc2-c2cccs2)N1` as the compound, how does the IC50 read?
Answer: 8200 nM

Question: Which IC50 does the source give for `CCOC(=O)c1ccc2nc(/C=C/C=C\c3ccc(O)c(OC)c3)oc2c1` here?
Answer: 130 nM

Question: Which IC50 does the source give for `O=C1NCCN(c2cccnc2-c2ccccc2)N1` here?
Answer: 30000 nM

Question: With `O=C(O)Cc1c(-c2ccc(Cl)cc2)c(-c2ccccc2)c2n1CCC2` as the compound, how does the IC50 read?
Answer: 1600 nM

Question: With `NC(=O)C1(c2cccc(Sc3ccc(-n4cccc4)cc3)c2)CCOCC1` as the compound, how does the IC50 read?
Answer: 270 nM

Question: With `CC(C)(C)c1cc(C(=O)CCCC#N)cc2c1OCC2(C)C` as the compound, how does the IC50 read?
Answer: 6000 nM

Question: With `CCOC(=O)c1c(Cc2ccc(OC)cc2)[nH]c2c1cc(O)c1ccccc12` as the compound, how does the IC50 read?
Answer: 150 nM

Question: Which IC50 does the source give for `CC1(C)CCC[C@@]2(C)C1CCC(C=O)[C@@H]2CC=C(C=O)C=O` (some centres undefined) here?
Answer: 7500 nM

Question: For `NS(=O)(=O)c1ccc(C#Cc2ccc(=O)n(C(F)F)c2)cc1`, which IC50 is on record?
Answer: 3500 nM

Question: Which IC50 does the source give for `COC1(c2cc(F)cc(OCc3ccc4c(ccc(=O)n4C)c3)c2)CCOCC1` [ZD-2138] here?
Answer: 330 nM
